Laboratory results taken from ChEMBL document CHEMBL1141652 (J Med Chem, 2008).

How the values were obtained:
[1] = Selectivity for human recombinant TACE over MMP1
[2] = Selectivity for human recombinant TACE over MMP2
[3] = Selectivity for human recombinant TACE over MMP3
[4] = Selectivity for human recombinant TACE over MMP7
[5] = Selectivity for human recombinant TACE over MMP14
[6] = Selectivity for human recombinant TACE over BMP1
[7] = Selectivity for human recombinant TACE over ADAM10
[8] = target: Disintegrin and metalloproteinase domain-containing protein 17 (Homo sapiens, UniProt P78536)
Chain of Disintegrin and metalloproteinase domain-containing protein 17 (P78536 whole entry, the tested form may be a part): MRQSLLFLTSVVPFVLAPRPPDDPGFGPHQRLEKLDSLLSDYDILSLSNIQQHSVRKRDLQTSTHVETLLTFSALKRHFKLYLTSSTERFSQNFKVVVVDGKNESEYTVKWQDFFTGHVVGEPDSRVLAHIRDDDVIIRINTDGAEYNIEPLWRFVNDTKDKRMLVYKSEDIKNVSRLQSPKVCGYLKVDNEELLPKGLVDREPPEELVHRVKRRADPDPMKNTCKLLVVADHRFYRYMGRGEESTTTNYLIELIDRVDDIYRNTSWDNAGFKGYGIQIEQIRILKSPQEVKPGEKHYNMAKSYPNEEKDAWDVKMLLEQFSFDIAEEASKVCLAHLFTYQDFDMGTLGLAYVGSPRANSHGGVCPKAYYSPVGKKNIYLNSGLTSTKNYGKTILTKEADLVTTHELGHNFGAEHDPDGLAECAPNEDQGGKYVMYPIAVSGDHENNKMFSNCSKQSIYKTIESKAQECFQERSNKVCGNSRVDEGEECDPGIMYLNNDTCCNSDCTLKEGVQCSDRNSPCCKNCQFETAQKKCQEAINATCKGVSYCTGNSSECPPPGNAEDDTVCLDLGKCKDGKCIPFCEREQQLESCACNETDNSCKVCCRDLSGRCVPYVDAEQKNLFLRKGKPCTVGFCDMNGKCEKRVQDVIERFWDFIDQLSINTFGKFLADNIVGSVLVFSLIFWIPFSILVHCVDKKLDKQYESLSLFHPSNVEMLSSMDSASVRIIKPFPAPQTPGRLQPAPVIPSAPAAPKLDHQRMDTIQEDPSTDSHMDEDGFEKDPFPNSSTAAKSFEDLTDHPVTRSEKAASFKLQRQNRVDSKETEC
Description: Inhibition of human recombinant TACE

| Compound | Ki [8] | also measured |
| --- | --- | --- |
| COC(=O)[C@]1(c2cccc(OCc3ccc(C(F)(F)F)cc3)c2)C[C@H]1C(=O)NO | 18 nM | Ratio Ki [1]: 1800; Ratio Ki [2]: > 600; Ratio Ki [3]: 200; Ratio Ki [4]: > 600; Ratio Ki [5]: 4000; Ratio Ki [6]: 700; Ratio Ki [7]: 8 |
| COC(=O)[C@]1(c2cccc(OCCc3ccc4ccccc4c3)c2)C[C@H]1C(=O)NO | 60 nM | – |
| COC(=O)[C@]1(c2cccc(Oc3ccc(C)cc3)c2)C[C@H]1C(=O)NO | 140 nM | – |
| COC(=O)[C@]1(c2cccc(OCc3cccc(OC)c3)c2)C[C@H]1C(=O)NO | 110 nM | – |
| COC(=O)[C@]1(c2cccc(OCCc3cccc4ccccc34)c2)C[C@H]1C(=O)NO | 50 nM | – |
| COC(=O)[C@]1(c2cccc(OCc3ccc(Cl)cc3)c2)C[C@H]1C(=O)NO | 50 nM | – |
| Cc1cc(COc2cccc([C@@]3(C(=O)N(C)Cc4ccccc4)C[C@H]3C(=O)NO)c2)c2ccccc2n1 | 3000 nM | – |
| COC(=O)[C@]1(c2cccc(OCc3cccc(F)c3)c2)C[C@H]1C(=O)NO | 80 nM | – |
| Cc1cc(COc2cccc([C@@]3(C(=O)NCc4ccccc4)C[C@H]3C(=O)NO)c2)c2ccccc2n1 | 140 nM | – |
| CC#CCOc1cccc([C@@]2(C(=O)OC)C[C@H]2C(=O)NO)c1 | 1600 nM | – |
| Cc1cc(COc2cccc([C@@]3(C(=O)N4CCN(C)CC4)C[C@H]3C(=O)NO)c2)c2ccccc2n1 | 5000 nM | – |
| CNC(=O)[C@]1(c2cccc(OCc3cc(C)nc4ccccc34)c2)C[C@H]1C(=O)NO | 100 nM | – |
| COC(=O)[C@@]1(Cc2ccc(OCc3ccc(Cl)c(Cl)c3)cc2)C[C@@H]1C(=O)NO | 130 nM | – |
| COC(=O)[C@]1(c2cccc(OCc3ccc(Cl)c(Cl)c3)c2)C[C@H]1C(=O)NO | 11 nM | Ratio Ki [1]: 6800; Ratio Ki [2]: 2800; Ratio Ki [3]: 600; Ratio Ki [4]: 5400; Ratio Ki [5]: 2400; Ratio Ki [6]: 400; Ratio Ki [7]: 10 |
| COC(=O)[C@@]1(Cc2ccc(OCC3CCCCC3)cc2)C[C@@H]1C(=O)NO | 26000 nM | – |
| COC(=O)[C@]1(c2cccc(OCc3cccc(C(F)(F)F)c3)c2)C[C@H]1C(=O)NO | 70 nM | – |
| COC(=O)[C@]1(c2cccc(OCc3ccc4ccccc4c3)c2)C[C@H]1C(=O)NO | 3000 nM | – |
| CCOC(=O)[C@@]1(Cc2ccc(Oc3ccccc3)cc2)C[C@@H]1C(=O)NO | 3100 nM | – |
| Cc1cc(COc2ccc(C[C@]3(C(=O)N(C)C)C[C@@H]3C(=O)NO)cc2)c2ccccc2n1 | 1 nM | – |
| COC(=O)[C@@]1(Cc2ccc(OCc3ccccc3Cl)cc2)C[C@@H]1C(=O)NO | 260 nM | – |
| COC(=O)[C@@]1(Cc2ccc(OCCc3ccc4ccccc4c3)cc2)C[C@@H]1C(=O)NO | > 100000 nM | – |
| CCOC(=O)[C@]1(c2cccc(OCc3cc(C)nc4ccccc34)c2)C[C@H]1C(=O)NO | 16 nM | – |

| Compound | Ki [8] | also measured |
| --- | --- | --- |
| Cc1cc(COc2cccc([C@@]3(C(=O)Nc4ccccc4)C[C@H]3C(=O)NO)c2)c2ccccc2n1 | 11 nM | – |
| COC(=O)C1(Cc2ccc(OCc3ccccc3)cc2)CC1C(=O)NO (racemic) | 800 nM | – |
| Cc1cc(COc2cccc([C@@]3(C(=O)N(C)C)C[C@H]3C(=O)NO)c2)c2ccccc2n1 | 2700 nM | – |
| Cc1cc(COc2cccc([C@@]3(C(N)=O)C[C@H]3C(=O)NO)c2)c2ccccc2n1 (relative stereo) | 700 nM | – |
| COC(=O)[C@@]1(Cc2ccc(OCc3ccccc3)cc2)C[C@@H]1C(=O)NO (racemic) | 800 nM | – |
| COC(=O)C1(Cc2cccc(OCc3ccccc3)c2)CC1C(=O)NO (racemic) | 4000 nM | – |
| CC#CCOc1ccc(C[C@]2(C(=O)OC)C[C@@H]2C(=O)NO)cc1 | 420 nM | – |
| COC(=O)[C@]1(c2cccc(OCCc3ccccc3)c2)C[C@H]1C(=O)NO | 290 nM | – |
| NC(=O)C1(Cc2ccc(OCc3ccccc3)cc2)CC1C(=O)NO (racemic) | 360 nM | – |
| COC(=O)[C@@]1(Cc2ccc(OCCc3cccc4ccccc34)cc2)C[C@@H]1C(=O)NO | > 100000 nM | – |
| COC(=O)[C@]1(c2cccc(Oc3ccccc3)c2)C[C@H]1C(=O)NO | 1100 nM | – |
| COC(=O)[C@]1(c2cccc(Oc3ccccc3C)c2)C[C@H]1C(=O)NO | 240 nM | – |
| CCOC(=O)C1(c2ccc(OCc3ccccc3)cc2)CC1C(=O)NO (racemic) | 20000 nM | – |
| Cc1cc(COc2cccc([C@@]3(C(=O)OC(C)C)C[C@H]3C(=O)NO)c2)c2ccccc2n1 | 8 nM | Ratio Ki [1]: 7400; Ratio Ki [2]: 1400; Ratio Ki [3]: 1500; Ratio Ki [4]: 12400; Ratio Ki [5]: 3000; Ratio Ki [6]: 800; Ratio Ki [7]: 4 |
| COC(=O)[C@]1(c2cccc(Oc3ccc4ccccc4c3)c2)C[C@H]1C(=O)NO | 70 nM | – |
| CC#CCOc1ccc(C[C@]2(C(N)=O)C[C@@H]2C(=O)NO)cc1 | 80 nM | – |
| NC(=O)C1(c2cccc(OCc3ccccc3)c2)CC1C(=O)NO (stereo not given) | 1200 nM | – |
| COC(=O)C1(c2cccc(OCc3ccccc3)c2)CC1C(=O)NO (racemic) | 500 nM | – |
| CNC(=O)[C@@]1(Cc2ccc(OCc3cc(C)nc4ccccc34)cc2)C[C@@H]1C(=O)NO | 14 nM | – |
| Cc1cc(COc2cccc([C@@]3(C(=O)NC4CCCCC4)C[C@H]3C(=O)NO)c2)c2ccccc2n1 | 9 nM | – |
| COC(=O)[C@]1(c2cccc(OCC3CCCCC3)c2)C[C@H]1C(=O)NO | 900 nM | – |
| COC(=O)[C@]1(c2cccc(OC)c2)C[C@H]1C(=O)NO | 3000 nM | – |
